Reference: patent publication US20230128730A1, “OXYGEN IMPERMEABLE PORPHYRIN PHOTOSENSITIZER FILM COMPOSITION FOR APPLICATION TO PLANTS” (SUNCOR ENERGY INC., priority 2020, published 2023)
Counter-ions that a name gives are not always drawn. Like-named read-outs stand apart in the source and are kept apart here.

Tests used:
Sclerotinia homoeocarpa = experiment: Broth protocol: control of dollar spot fungus with modified chlorins; assay type: cell-based; conditions: Clarireedia homoeocarpa
Description: Broth protocol: control of dollar spot fungus (Sclerotinia homoeocarpa) with modified chlorins was assessed. Treatments were prepared in Phosphate Buffered Saline (PBS) in 24 well plates (in duplicates for light vs. dark incubation) at desired concentrations. Then, a 5 mm diameter plug of a Sclerotinia homoeocarpa isolate (3 isolates total tested) was inoculated into the PBS and incubated at 21° C. in the dark for 2 hours. After 2 hours, one of the 24 well plates (with isolates in triplicate) was left in the dark and one 24 well plate was placed under illumination for 1 hour (all at 21° C.). Following illumination, fungal plugs were removed from PBS, blotted dry on sterile filter paper and transferred to non-amended Potato Dextrose Agar (PDA). Radial growth of the fungus was monitored daily until the growth of S. homoeocarpa reached the edge of the Petri-dish. Illumination was provided by LED lights emitting about 1000 μmol/m2/s photosynthetically active radiation (PAR).

[1] = Method A: photostability in a non-hydrated state (solid state), dried films under LED light; assay type: physicochemical
Description: Fifty microlitres of each formulation was pipetted into 12 wells of a 96-well clear-bottom black microplate (Thomas Scientific, Swedesboro, N.J.) and dried into thin films using a dehydrator (Gourmia GFD1680) at a temperature of 45° C. for 3 h. At the beginning of the experiment, the microplate was placed under a Heliospectra RX30 LED light array (Heliospectra, San […], Calif.). The LED array was adjusted such that the microplates received on average 1300 μmol/m^2/s of light intensity. The microplate was tightly covered with aluminum foil and at select intervals peeled back to irradiate films with either 0 h, 24 h, 48 h or 72 h of light. […] An absorbance spectral scan was conducted on the microplate (350-750 nm) using a plate reader (Spectramax M2E, Molecular Devices, San Jose, Calif.) and the peak intensity was monitored at 24 h, 48 h and/or 72 h timepoints and compared with the corresponding 0 h timepoint to determine the degree of photodegradation. The % photosensitizer remaining after irradiation was calculated using the following equation: [formula] where Abst is the absorbance peak of the sample receiving t hours of light exposure; Abs0 is the absorbance peak of the sample receiving no light exposure. All data is expressed as mean±standard deviation.

[2] = Method B: photostability in solution (liquid state) under LED light; assay type: physicochemical
Description: Fifty microlitres of each formulation was pipetted into 12 wells of a 96-well clear-bottom black microplate (Thomas Scientific, Swedesboro, N.J.), followed by the addition of 50 μL dH2O. The sample was sealed with a microplate clear adhesive film to minimize water evaporation. At the beginning of experiment, the microplate was placed under a Heliospectra RX30 LED light array (Heliospectra, San […], Calif.). The LED array was adjusted such that the microplates received on average 1300 μmol/m^2/s of light intensity. […] The % photosensitizer remaining after irradiation was calculated using the following equation: [formula] where Abst is the absorbance peak of the sample receiving t hours of light exposure; Abs0 is the absorbance peak of the sample receiving no light exposure. All data is expressed as mean±standard deviation.

[3] = test system: Colletotrichum orbiculare ATC20767 (Cgm); experiment: Control of Colletotrichum orbiculare on Nicotiana benthamiana, film-forming formulations applied 48 h before inoculation; assay type: in vivo; conditions: host Nicotiana benthamiana, PVOH 89 kDa, >99% hydrolysis
Description: Control of the fungal plant pathogen Colletotrichum orbiculare ATC20767 (Cgm) on the host plant Nicotiana benthamiana following treatment with formulations containing Magnesium chlorophyllin, sodium salt with hydrogel polymer, polyvinylalcohol 89 kDa (99%+hydrolysis) and phenolic antioxidant vanillin were assessed. Treatments were applied to N. benthamiana plants approximately 48 h prior to inoculation to simulate photodegradation on a leaf surface. Subsequently, with a spore suspension of Cgm was applied to the leaves. Plants were then exposed to light for a 24-hour period followed by dark incubation until disease symptoms were evident on the water-treated control plants. Once disease symptoms were evident, lesions were counted, and leaf area measured in order to determine the number of lesions/cm^2 leaf area. Four replicate plants were used per treatment and plants were randomized under the light source. […]
Control of the fungal plant pathogen Colletotrichum orbiculare ATC20767 (Cgm) on the host plant Nicotiana benthamiana following treatment with formulations containing Magnesium chlorophyllin, sodium salt with hydrogel polymer, polyvinylalcohol 89 kDa (99%+hydrolysis) and phenolic antioxidant tannic acid were assessed. […] Once disease symptoms were evident, lesions were counted, and leaf area measured in order to determine the number of lesions/cm^2 leaf area. […]

[4] = test system: Pseudomonas syringae v. tabacii; experiment: Inhibition of P. syringae in host plant N. benthamiana by film-forming compositions; assay type: in vivo; conditions: host Nicotiana benthamiana, PVOH 89 kDa, >99% hydrolysis
Description: Two days prior to inoculation, chemical treatments were applied to N. benthamiana plants at the 5-6 leaf stage until run off using a handheld spray bottle delivering a fine spray. Plants sprayed with water were used for Control. Immediately after treatment, plants were randomly placed on a shelf and exposed to LED lights emitting approximately 450 μmol/m2/s photo-synthetically active radiation (PAR) for a 12 h light/12 h dark photoperiod. For inoculation, Pst from a glycerol stock was cultured on Tryptic Soy Agar (TSA) and incubated overnight at 30° C. Bacterial cells were collected from the overnight culture, suspended in de-ionized water and diluted to 1×10^8 CFU/ml followed by the addition of 0.02% (v/v) Silwet L-77. Inoculum was then applied to plants until runoff and the plants covered with transparent plastic domes to maintain 100% relative humidity.
Inoculated plants were randomly placed on a shelf in the Growth room which was maintained at 24° C., and were exposed to a combination of fluorescent and LED lights emitting approximately 250 μmol/m^2/s PAR for an 16 h light/8 h dark photoperiod for 7 days. Entire plants were assessed for disease severity using rating scale of 0-100%. Disease symptoms included yellow lesions, discoloration on foliage, leaf deformation and stunted growth. Four replications per treatment were used in the experiment.

[5] = Thermal stability of MgChln, 2 weeks at 54° C.; assay type: physicochemical; conditions: in dH2O, wrapped in aluminum foil, mean ± SD
Description: These samples were wrapped in aluminum foil and stored in a 54° C. oven for a period of 2 weeks. After the 2-week period, the samples were taken out of the 54° C. oven or -20° C. freezer and assayed using the UV-Visible plate reader (Spectramax M2E, Molecular Devices, San Jose, Calif.) with 12 technical replicates per sample. The degradation of […] as a result of storage at elevated temperature was determined by calculating the % photosensitizer remaining using the following equation: [formula] where Abst is the absorbance peak of the sample after incubation for 2 weeks at 54° C.; Abs0 is the absorbance peak of the sample at the start of experiment without being stored at 54° C. All data is expressed as mean±standard deviation.

[6] = 1 h, read-out: Inhibition, % (Light)

With `C=Cc1c(C)c2cc3nc(c(CC(=O)NCCOP(=O)(O)O)c4[nH]c(cc5nc(cc1[nH]2)C(C)=C5CC)c(C)c4C(=O)O)C(CCC(=O)O)C3C` (stereo not shown) [Ce6-mono-EP^15 amide octylammonium salt] as the compound, how does the inhibition at 10 µM (Sclerotinia homoeocarpa; [6]) read?
Its inhibition at 10 µM is 58%.

What about the inhibition at 100 µM (Sclerotinia homoeocarpa; [6]) of the same compound?
The inhibition at 100 µM was 71%.

What about the inhibition at 10 µM (Sclerotinia homoeocarpa; read-out: Inhibition, % (Dark)) of the same compound?
The inhibition at 10 µM was 3%.

What about the inhibition at 100 µM (Sclerotinia homoeocarpa; read-out: Inhibition, % (Dark)) of the same compound?
The inhibition at 100 µM was -5%.

What does the source list for `C=CC1=C(C)C2=CC3=NC(=C(CC(=O)[O-])C4=NC(=C(C)C4=C([O-])[O-])C=c4[n-]c(c(C)c4CC)=CC1=N2)C(CCC(=O)[O-])C3C.[H+].[H+].[H+].[Mg+2]` (stereo not shown) [MgChln, Magnesium chlorin e6]?
% photosensitizer remaining at 72 h (solid state) ([1]; MgChln, PVOH 89 kDa, >99% hydrolysis, tannic acid, adjuvants, 72 h simulated sunlight): 41.2 ± 2.9%; % photosensitizer remaining at 72 h (solid state) ([1]; MgChln, PVOH 89 kDa, >99% hydrolysis, various antioxidants, 72 h simulated sunlight): 31.6 ± 2.3%; % photosensitizer remaining at 72 h (solid state) ([1]; MgChln, PVOH 89 kDa, >99% hydrolysis, dried film, 72 h light irradiation, mean ± SD): 46.0 ± 1.8%; % photosensitizer remaining at 72 h (solid state) ([1]; MgChln, PVOH 146 kDa, >99% hydrolysis, 72 h simulated sunlight, mean ± SD): 29.1 ± 2%; % photosensitizer remaining at 72 h (solid state) ([1]; MgChln, PVOH of varied molecular weight and degree of hydrolysis, 72 h simulated sunlight, mean ± SD): 45.2 ± 7.1%; % photosensitizer remaining at 72 h (solid state) ([1]; MgChln, various film-forming polymers and tannic acid, 72 h simulated sunlight): 42.4 ± 2.5%; % photosensitizer remaining at 6 h (liquid state) ([2]; MgChln, PVOH 89 kDa, >99% hydrolysis, tannic acid, adjuvants, 6 h simulated light): 31.5 ± 5.3%; % photosensitizer remaining at 6 h (liquid state) ([2]; MgChln, PVOH 89 kDa, >99% hydrolysis, various antioxidants, 6 h simulated light): 20.6 ± 3.9%; % photosensitizer remaining at 6 h (liquid state) ([2]; MgChln, PVOH 146 kDa, >99% hydrolysis, 6 h simulated sunlight, mean ± SD): 35.2 ± 2.1%; % photosensitizer remaining at 6 h (liquid state) ([2]; MgChln, PVOH of varied molecular weight and degree of hydrolysis, 6 h simulated sunlight, mean ± SD): 44.6 ± 9.6%; % photosensitizer remaining at 6 h (liquid state) ([2]; MgChln, various film-forming polymers and tannic acid, 6 h): 27.5 ± 1.8%; % inhibition ([3]; applied about 48 h prior to inoculation): 76%; % Disease inhibition ([3]; sprayed films irradiated 48 h prior to inoculation with fungal spores): 95.1%; % Disease inhibition ([4]; relative to water control): 45.3%; Disease severity, % Mean ([4]; sprayed two days prior to inoculation, rated 7 days after, scale 0-100%, control 80): 43.8%; % Photosensitizer remaining [5]: 62 ± 7%

For Aluminum chlorin e6 [Aluminum Ce6Na3], which “% photosensitizer remaining at 72 h (solid state)” value ([1]; various tetrapyrroles, PVOH 89 kDa, >99% hydrolysis and tannic acid, 72 h simulated sunlight) is on record?
Its value is 91.4 ± 5.5%.

What about the “% photosensitizer remaining at 6 h (liquid state)” value ([2]; various tetrapyrroles, PVOH 89 kDa, >99% hydrolysis and tannic acid, 6 h simulated light) of the same compound?
Its value is 3.9 ± 0.2%.
